From article PMC8623168, “Evaluation of Amyloid Polypeptide Aggregation Inhibition and Disaggregation Activity of A-Type Procyanidins” (Pharmaceuticals, 2021)

What was measured:
Format in all cases: biochemical
[1] = molecular target: T1, hIAPP (human islet amyloid polypeptide) (Homo sapiens, UniProt P10997); assay: thioflavin-T fluorescence, aggregation inhibition; conditions: read-out: IC50 (Aβ/hIAPP, μM) ^a
T1 construct: gene IAPP; mature peptide of 37 residues (34-70 of the precursor, recalled), bought from KareBay Biochem; aggregating peptide, monomer to fibril
T1 sequence (P10997 34-70): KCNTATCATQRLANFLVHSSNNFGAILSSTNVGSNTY
Text: thioflavin-T fluorescence, aggregation inhibition on hIAPP (human islet amyloid polypeptide)

[2] = molecular target: T1, hIAPP (human islet amyloid polypeptide); assay: thioflavin-T fluorescence, disaggregation of preformed aggregates; conditions: read-out: EC50 (Aβ/hIAPP, μM) ^a
Text: thioflavin-T fluorescence, disaggregation of preformed aggregates on hIAPP (human islet amyloid polypeptide)

[3] = molecular target: T2, Aβ42 (amyloid-β; Aβ) (Homo sapiens, UniProt P05067); assay: as above; conditions: read-out: EC50 (Aβ/hIAPP, μM) ^a
T2 construct: gene APP; Abeta42 peptide of 42 residues (672-713 of APP, recalled); cut from amyloid precursor protein; aggregating peptide, monomer to fibril
T2 sequence (P05067 672-713): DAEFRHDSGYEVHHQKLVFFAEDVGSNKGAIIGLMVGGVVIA
Text: thioflavin-T fluorescence, disaggregation of preformed aggregates on Aβ42 (amyloid-β; Aβ)

[4] = molecular target: T2, Aβ42 (amyloid-β; Aβ); assay: thioflavin-T fluorescence, aggregation inhibition; conditions: read-out: IC50 (Aβ/hIAPP, μM) ^a
Text: thioflavin-T fluorescence, aggregation inhibition on Aβ42 (amyloid-β; Aβ)

Row | SMILES | IC50 [1] | EC50 [2] | EC50 [3] | IC50 [4]
1 | O=C(O[C@@H]1Cc2c(O)cc(O)cc2O[C@@H]1c1cc(O)c(O)c(O)c1)c1cc(O)c(O)c(O)c1 [EGCG, reference compound] | 1.1 µM | 3.7 µM | 5 µM | 3.8 µM
2 | Oc1cc(O)c2c(c1)O[C@@]1(c3ccc(O)c(O)c3)Oc3cc(O)c4c(c3[C@@H]2[C@H]1O)O[C@H](c1ccc(O)c(O)c1)[C@H](O)C4 [compound 1, procyanidin A2] | 8.4 µM | 5.4 µM | 3.3 µM | 4.8 µM
3 | Oc1cc(O)c2c(c1)O[C@@]1(c3ccc(O)c(O)c3)Oc3cc4c(c(O)c3[C@@H]2[C@H]1O)C[C@@H](O)[C@@H](c1ccc(O)c(O)c1)O4 [compound 3, proanthocyanidin A6] | 16.4 µM | 4.9 µM | 23 µM | 4.2 µM
4 | Oc1cc(O)c2c(c1)O[C@@]1(c3ccc(O)c(O)c3)Oc3cc4c(c(O)c3[C@@H]2[C@H]1O)C[C@H](O)[C@@H](c1ccc(O)c(O)c1)O4 [compound 4, 4] | 16.8 µM | – | – | 5.7 µM
5 | Oc1cc(O)c2c(c1)O[C@@]1(c3ccc(O)c(O)c3)Oc3c4c(cc(O)c3[C@@H]2[C@H]1O)O[C@H](c1ccc(O)c(O)c1)[C@H](O)C4 [compound 5, proanthocyanidin A7] | 13.4 µM | 15.8 µM | 8.9 µM | 2.4 µM
6 | Oc1cc(O)c2c(c1)O[C@@]1(c3ccc(O)c(O)c3)Oc3c4c(cc(O)c3[C@@H]2[C@H]1O)O[C@H](c1ccc(O)c(O)c1)[C@@H](O)C4 [compound 6, 6] | 11.6 µM | – | – | 6.8 µM
7 | COc1cc(OC)c2c(c1)O[C@@]1(c3ccc(OC)c(OC)c3)Oc3cc(OC)c4c(c3[C@@H]2[C@H]1O)O[C@H](c1ccc(OC)c(OC)c1)[C@H](O)C4 [compound 7, 7] | > 100 µM | > 100 µM | > 100 µM | > 100 µM
8 | Oc1cc(O)c2c(c1)O[C@H](c1ccc(O)c(O)c1)[C@H](O)C2 [compound 8, (−)-epicatechin] | 38.9 µM | 12.2 µM | 12.9 µM | 41.7 µM
9 | Oc1cc(O)c2c(c1)O[C@H](c1ccc(O)c(O)c1)[C@@H](O)C2 [compound 9, (+)-catechin] | 40.9 µM | – | – | 56.8 µM
